Patent US11084826B2, “RSV antiviral pyrazolo- and triazolo-pyrimidine compounds” (Janssen Sciences Ireland Unlimited Company, priority 2015, dated 2021)

Key:
[1] = Cytotoxicity in HeLa cells, ATP content measured with the ATPlite kit; format: cell-based; conditions: human, TOX HELA pCC50
Method: (§1) Black 384-well clear-bottom microtiter plates (Corning, Amsterdam, The Netherlands) were filled via acoustic drop ejection using the echo liquid handler (Labcyte, Sunnyvale, Calif.). 200 nL of compound stock solutions (100% DMSO) were transferred to the assay plates. 9 serial 4-fold dilutions of compound were made, creating per quadrant the same compound concentration. The assay was initiated by adding 10 μL of culture medium to each well (RPMI medium without phenol red, 10% FBS-heat inactivated, 0.04% gentamycin (50 mg/mL). All addition steps are done by using a multidrop dispenser (Thermo Scientific, Erembodegem, Belgium). Next, rgRSV224 virus (MOI=1) diluted in culture medium was added to the plates. rgRSV224 virus is an engineered virus that includes an additional GFP gene (Hallak LK, Spillmann D, Collins PL, Peeples Me. Glycosaminoglycan sulfation requirements for respiratory syncytial virus infection; Journal of virology (2000), 74(22), 10508-13) and was in-licensed from the NIH (Bethesda, Md., USA). Finally, 20 μL of a HeLa cell suspension (3,000 cells/well) were plated. Medium, virus- and mock-infected controls were included in each test. The wells contain 0.05% DMSO per volume. Cells were incubated at 37° C. in a 5% CO2 atmosphere. Three days post-virus exposure, viral replication was quantified by measuring GFP expression in the cells by an in house developed MSM laser microscope (Tibotec, Beerse, Belgium). The EC50 was defined as the 50% inhibitory concentration for GFP expression. In parallel, compounds were incubated for three days in a set of white 384-well microtiter plates (Corning) and the cytotoxicity of compounds in HeLa cells was determined by measuring the ATP content of the cells using the ATPlite kit (Perkin Elmer, Zaventem, Belgium) according to the manufacturer's instructions. The CC50 was defined as the 50% concentration for cytotoxicity.

rgRSV224 virus = assay: Antiviral activity: inhibition of rgRSV224 (GFP-expressing RSV) replication in HeLa cells, GFP expression read-out; format: cell-based, respiratory syncytial virus (RSV); conditions: human respiratory syncytial virus, HeLa, read-out: RSV HELA pEC50, rgRSV224 virus (MOI=1) in HeLa cells, GFP read-out (converted)
Method: as §1

Row | Structure (SMILES) | CC50 at 3 days [1] | EC50 (rgRSV224 virus)
1 | CCc1cc(C(=O)N2CCCCCC2C)nc2cc(-c3ccc(NS(=O)(=O)C4CC4)cc3F)nn12 (stereo not drawn) [Compound D2] | > 50100 nM | 603 nM
2 | CCc1cc(C(=O)N2CCc3ccccc3C2C)nc2cc(-c3ccc(/C=C(\C)C(=O)O)cc3F)nn12 (stereo not drawn) [Compound M17] | 17400 nM | 63.1 nM
3 | CCc1cc(C(=O)N2CCCCCC2C)nc2cc(-c3ccc(-c4c[nH]cn4)cc3F)nn12 (stereo not drawn) [Compound F16] | > 25100 nM | 145 nM
4 | CCc1cc(C(=O)N2CCCCC[C@H]2C)nc2cc(-c3ccc(-c4cc(=O)[nH]o4)cc3F)nn12 [Compound X1] | > 25100 nM | 93.3 nM
5 | CCc1cc(C(=O)N2CCCCC[C@H]2C)nc2cc(-c3ccc(C4CC5(CC(C(=O)O)C5)C4)cc3F)nn12 (stereo partly drawn) [Compound F47] | 46800 nM | 245 nM
6 | CCCC(C)N(CC)C(=O)c1cc(CC)n2nc(-c3ccc([C@H]4C[C@@H]4C(=O)O)cc3F)cc2n1 (relative stereo) [Compound O14] | 66100 nM | 219 nM
7 | CCCC(C)N(CC)C(=O)c1cc(CC)n2nc(-c3ccc(C4C[C@H]4C(=O)O)cc3F)cc2n1 (mixture of isomers) [Compound O13] | 45700 nM | 141 nM
8 | C[C@@H]1c2ccsc2CCN1C(=O)c1cc(C2(C)CC2)n2nc(-c3ccc(N4CC[C@H](C(=O)O)C4)cc3F)cc2n1 [Compound W44] | 49000 nM | 8.71 nM
9 | CCc1cc(C(=O)N2CCc3ccccc3[C@H]2C)nc2cc(-c3ccc(/C=C/C(=O)O)cc3F)nn12 [Compound M15] | > 20400 nM | 15.1 nM
10 | CCc1cc(C(=O)N2CCCCC[C@H]2C)nc2cc(-c3ccc(N(C)c4cc(C(=O)O)nn4C)cc3F)nn12 [Compound W21] | 21900 nM | 1020 nM
11 | C[C@@H]1CCCCCN1C(=O)c1cc(C2(C)COC2)n2nc(-c3cccc(/C=C/C(=O)O)c3F)cc2n1 [Compound M33] | > 100000 nM | 102 nM
12 | CCc1cc(C(=O)N2CCCCC[C@H]2C)nc2cc(-c3ccc(-c4ccc(C(=O)O)nc4)cc3F)nn12 [Compound F24] | 12600 nM | 69.2 nM
13 | CCc1cc(C(=O)N2CCCCC[C@H]2C)nc2cc(-c3ccc4ccc(C(=O)O)nc4c3F)nn12 [Compound F45] | 91200 nM | 43.7 nM
14 | CCc1cc(C(=O)N2CCCCCC2C)nc2cc(-c3ccc(-c4cnn(C5CC5)c4)cc3F)nn12 (stereo not drawn) [Compound F12] | > 25100 nM | 1380 nM
15 | CCc1cc(C(=O)N2CCc3ccccc3C2C)nc2cc(-c3ccc(-c4ccc(C(=O)O)nc4)cc3F)nn12 (stereo not drawn) [Compound F22] | 6920 nM | 35.5 nM
16 | CCc1cc(C(=O)N2CCCCCC2C)nc2cc(-c3ccc(-c4cccnc4)cc3)nn12 (stereo not drawn) [Compound F2] | 38900 nM | 2950 nM
17 | CCc1cc(C(=O)N2CCCc3ccccc3C2C)nc2cc(-c3ccc(/C=C/C(=O)O)cc3F)nn12 (stereo not drawn) [Compound M18] | > 25100 nM | 77.6 nM
18 | CCc1cc(C(=O)N2CCCCC[C@H]2C)nc2cc(-c3ccc(-c4ccnc(C(=O)O)c4)cc3F)nn12 [Compound F25] | 13500 nM | 43.7 nM
19 | CC1c2ccsc2CCN1C(=O)c1cc(C2(C)CC2)n2nc(-c3ccc4c(c3F)OCC(C(=O)O)=C4)cc2n1 (racemic) [Compound F67] | 67600 nM | 39.8 nM
20 | CCc1cc(C(=O)N2CCCCCC2C)nc2cc(-c3ccc(-c4cnc(C)n4C)cc3F)nn12 (stereo not drawn) [Compound F11] | > 25100 nM | 1350 nM
21 | CCc1cc(C(=O)N2CCn3c(Cl)ccc3C2C)nc2cc(-c3ccc(-c4ccc(C(=O)O)cn4)cc3F)nn12 (racemic) [Compound F56] | > 100000 nM | 155 nM

Row | Structure (SMILES) | CC50 at 3 days [1] | EC50 (rgRSV224 virus)
22 | CCc1cc(C(=O)N2CCCCCC2C)nc2cc(-c3cc(NC(=O)C4CC4)ccc3F)nn12 (stereo not drawn) [Compound E12] | 60300 nM | 447 nM
23 | CCc1cc(C(=O)N2CCn3cccc3C2C)nc2cc(-c3ccc4c(c3F)OCC(C(=O)O)=C4)nn12 (racemic) [Compound F61] | > 100000 nM | 45.7 nM
24 | C[C@@H]1CCCCCN1C(=O)c1cc(C2(C)COC2)n2nc(-c3ccc4c(c3F)OCC(C(=O)O)=C4)cc2n1 (racemic) [Compound F62] | > 25100 nM | 57.5 nM
25 | CCc1cc(C(=O)N2CCCC3(CC=CC3)C2C)nc2cc(-c3ccc(-c4ccc(C(=O)O)cn4)cc3F)nn12 (racemic) [Compound F50] | 60300 nM | 324 nM
26 | C[C@@H]1CCCCCN1C(=O)c1cc(C2CC2)n2nc(-c3cccc([C@H]4C[C@@H]4C(=O)O)c3F)cc2n1 [Compound O6] | 97700 nM | 148 nM
27 | CCc1cc(C(=O)N2CCCn3cccc3C2C)nc2cc(-c3ccc(-c4ccc(C(=O)O)cn4)cc3F)nn12 (racemic) [Compound F59] | > 25100 nM | 191 nM
28 | CC1CCCCCN1C(=O)c1cc(CC2CCCCC2)n2nc(-c3ccccc3F)cc2n1 (stereo not drawn) [Compound A20] | > 25100 nM | 6310 nM
29 | CCc1cc(C(=O)N2CCCCC[C@H]2C)nc2cc(-c3cc4ccc(C(=O)O)nc4cc3F)nn12 [Compound F33] | 66100 nM | 91.2 nM
30 | CCc1cc(C(=O)N2CCCCC[C@H]2C)nc2cc(-c3ccc(/C=C/C(=O)O)c(OC)c3F)nn12 [Compound M32] | 66100 nM | 178 nM
31 | C[C@@H]1CCCCCN1C(=O)c1cc(C2CCC2)n2nc(-c3ccc(-c4ccc(C(=O)O)cn4)cc3F)cc2n1 [Compound F32] | 32400 nM | 28.2 nM
32 | C[C@@H]1CCCCCN1C(=O)c1cc(C2CC2)n2nc(-c3ccc4c(c3F)OCC(C(=O)O)=C4)cc2n1 [Compound F38] | 36300 nM | 51.3 nM
33 | CCc1cc(C(=O)N2CCCCC[C@H]2C)nc2cc(-c3ccc(N4CCC[C@@H](C(=O)O)C4)cc3F)nn12 [Compound W4] | 89100 nM | 105 nM
34 | C[C@@H]1CCCCCN1C(=O)c1cc(C2(C)CC2)n2nc(-c3ccc(N4CC[C@H](C(=O)O)C4)cc3F)cc2n1 [Compound W30] | 50100 nM | 17.4 nM
35 | C[C@@H]1CCCCCN1C(=O)c1cc(C2CC2)n2nc(-c3cccc(/C=C/C(=O)O)c3F)cc2n1 [Compound M28] | 17800 nM | 93.3 nM
36 | CCc1cc(C(=O)N2CCCCC[C@H]2C)nc2cc(-c3ccc(N4CC(C(=O)O)C4)cc3F)nn12 [Compound W1] | > 25100 nM | 64.6 nM
37 | CCc1cc(C(=O)N2CCCCC[C@H]2C)nc2cc(-c3ccc(N(C)[C@H]4C[C@H](C(=O)O)C4)cc3F)nn12 (racemic) [Compound W22] | 87100 nM | 45.7 nM
38 | CCc1cc(C(=O)N2CCc3ccsc3C2C)nc2cc(-c3ccc(-c4ccc(C(=O)O)cn4)cc3F)nn12 (racemic) [Compound F55] | > 100000 nM | 120 nM
39 | CCc1cc(C(=O)N2CCCCC[C@H]2C)nc2cc(-c3ccc(N4CCC[C@H](C(=O)O)C4)cc3F)nn12 [Compound W5] | 95500 nM | 89.1 nM
40 | CCc1cc(C(=O)N2CCCCC[C@H]2C)nc2cc(-c3ccc(C4[C@@H](C(=O)O)C4(F)F)cc3F)nn12 (mixture of isomers) [Compound O18] | 53700 nM | 191 nM
41 | CCc1cc(C(=O)N2CCCCC[C@H]2C)nc2cc(-c3ccc(-n4cc(C(=O)O)c(C)n4)cc3F)nn12 (racemic) [Compound W25] | 66100 nM | 93.3 nM
42 | CCc1cc(C(=O)N2CCc3sc(C)cc3C2C)nc2cc(-c3ccc(-c4ccc(C(=O)O)cn4)cc3F)nn12 (racemic) [Compound F58] | 26300 nM | 170 nM
